Biological target: T1, human GLP-1 (Homo sapiens, UniProt P43220)
T1 construct: expressed in transfected cells
Test: h-GLP-1 activity assay (Cisbio cAMP Gs dynamic kit, HTRF)
Format: cell-based
Settings: HEK293 cells with stable expression of human GLP-1, relative EC50, 10 nM human GLP-1 = 100% response
Experimental: Human GLP-1 agonizing activity was detected in HEK293 cells with stable expression of human GLP-1 by Cisbio cAMP Gs dynamic kit (Catalog #62AM4PEC) according to manufacturer's protocol. Briefly, cells were collected and resuspended in assay buffer containing 0.1% BSA and 0.5 mM of IBMX at concentration to 2.5×10^5 cells/mL. Two μL 5× compound solution and 8 μL cell suspension were added to each well of low-volume 384 white assay plate. After 30 min incubation at 37° C., 5 μL cAMP-d2 working solution and 5 μL anti-cAMP antibody-cryptate were added to each well, and incubate at room temperature for 1 hr. Series dilution of cAMP was used as standard. Human GLP-1 (7-37) was used as positive control and 10 nM human GLP-1 was set as 100% response. HTRF signals were read at 665 and 615 nm with EnVision plate reader and calculated cAMP concentration by intrapolation to the standard curve. The EC50 value of the tested compounds was calculated by fitting the dose response curve using a 4-parameter non-linear regression routine and relative EC50 was presented in Table S.

T1 sequence (P43220 24-463): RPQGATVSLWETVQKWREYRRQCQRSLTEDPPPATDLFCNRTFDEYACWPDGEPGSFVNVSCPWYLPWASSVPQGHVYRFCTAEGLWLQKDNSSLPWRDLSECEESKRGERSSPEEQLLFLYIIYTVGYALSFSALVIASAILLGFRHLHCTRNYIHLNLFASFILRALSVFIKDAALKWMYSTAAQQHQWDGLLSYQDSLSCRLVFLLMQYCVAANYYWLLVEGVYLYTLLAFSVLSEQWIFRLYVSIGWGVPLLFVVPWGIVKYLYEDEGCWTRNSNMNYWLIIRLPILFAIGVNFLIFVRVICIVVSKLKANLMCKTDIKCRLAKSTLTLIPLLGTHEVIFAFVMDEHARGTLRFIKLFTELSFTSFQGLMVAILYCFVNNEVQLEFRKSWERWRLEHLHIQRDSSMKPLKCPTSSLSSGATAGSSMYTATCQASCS

Row | SMILES | EC50 [nM]
1 | CC1(c2ccc(Cl)cc2F)Oc2cccc(C3CCC(Cc4nc5ccc(C(=O)O)cc5n4C[C@@H]4CCO4)OC3)c2O1 (mixture of isomers) [Compound 56, 2-((5-(2-(4-chloro-2-fluorophenyl)-2-methylbenzo[d][1,3]dioxol-4-yl)tetrahydro-2H-pyran-2-yl)methyl)-1-(((S)-oxetan-2-yl)methyl)-1H-benzo[d]imidazole-6-carboxylic acid] | < 20
2 | O=C(O)c1ccc2nc(Cc3cc(F)c(-c4cccc5c4OC(c4ccc(Cl)cc4F)CO5)cc3F)n(C[C@@H]3CCO3)c2c1 (mixture of isomers) [Compound 60, 2-(4-(3-(4-chloro-2-fluorophenyl)-2,3-dihydrobenzo[b][1,4]dioxin-5-yl)-2,5-difluorobenzyl)-1-(((S)-oxetan-2-yl)methyl)-1H-benzo[d]imidazole-6-carboxylic acid] | < 20
3 | CC1(c2ccc(Cl)cc2F)Oc2cccc(C3CC4(C3)CN(Cc3nc5ccc(C(=O)O)cc5n3C[C@@H]3CCO3)C4)c2O1 (mixture of isomers) [Compound 23, 2-((6-(2-(4-chloro-2-fluorophenyl)-2-methylbenzo[d][1,3]dioxol-4-yl)-2-azaspiro[3.3]heptan-2-yl)methyl)-1-(((S)-oxetan-2-yl)methyl)-1H-benzo[d]imidazole-6-carboxylic acid] | > 100
4 | CC1(c2ccc(C(F)(F)F)cc2F)Oc2cccc(-c3ccc(Cc4nc5ccc(C(=O)O)cc5n4C[C@@H]4CCO4)cc3)c2O1 (mixture of isomers) [Compound 26, 2-(4-(2-(2-fluoro-4-(trifluoromethyl)phenyl)-2-methylbenzo[d][1,3]dioxol-4-yl)benzyl)-1-(((S)-oxetan-2-yl)methyl)-1H-benzo[d]imidazole-6-carboxylic acid] | < 20
5 | O=C(O)c1ccc2nc(CN3CCC(c4cccc5c4CC(c4ccc(Cl)cn4)O5)CC3)n(C[C@@H]3CCO3)c2c1 (mixture of isomers) [Compound 27, 2-((4-(2-(5-chloropyridin-2-yl)-2,3-dihydrobenzofuran-4-yl)piperidin-1-yl)methyl)-1-(((S)-oxetan-2-yl)methyl)-1H-benzo[d]imidazole-6-carboxylic acid] | > 100
6 | O=C(O)c1ccc2nc(Cc3ccc(-c4cccc5c4NC(=O)C(c4ccc(Cl)cc4F)O5)cc3)n(C[C@@H]3CCO3)c2c1 (mixture of isomers) [Compound 42, 2-(4-(2-(4-chloro-2-fluorophenyl)-3-oxo-3,4-dihydro-2H-benzo[b][1,4]oxazin-5-yl)benzyl)-1-(((S)-oxetan-2-yl)methyl)-1H-benzo[d]imidazole-6-carboxylic acid] | > 100
7 | CC1(c2ccc(Cl)cc2F)Oc2cccc(C3CCC(Cc4nc5ccc(C(=O)O)cc5n4C[C@@H]4CCO4)CO3)c2O1 (mixture of isomers) [Compound 58, 2-((6-(2-(4-chloro-2-fluorophenyl)-2-methylbenzo[d][1,3]dioxol-4-yl)tetrahydro-2H-pyran-3-yl)methyl)-1-(((S)-oxetan-2-yl)methyl)-1H-benzo[d]imidazole-6-carboxylic acid] | > 100
8 | CC1(c2ccc(Cl)cc2F)Oc2cccc(C3=CCC(Cc4nc5ccc(C(=O)O)cc5n4C[C@@H]4CCO4)OC3)c2O1 (mixture of isomers) [Compound 61, 2-((5-(2-(4-chloro-2-fluorophenyl)-2-methylbenzo[d][1,3]dioxol-4-yl)-3,6-dihydro-2H-pyran-2-yl)methyl)-1-(((S)-oxetan-2-yl)methyl)-1H-benzo[d]imidazole-6-carboxylic acid] | < 20
9 | CC1(c2ccc(Cl)cc2F)Oc2c(cccc2C2CCN(Cc3nc4ccc(C(=O)O)cc4n3C[C@@H]3CCO3)CC2)NC1=O (mixture of isomers) [Compound 68, 2-((4-(2-(4-chloro-2-fluorophenyl)-2-methyl-3-oxo-3,4-dihydro-2H-benzo[b][1,4]oxazin-8-yl)piperidin-1-yl)methyl)-1-(((S)-oxetan-2-yl)methyl)-1H-benzo[d]imidazole-6-carboxylic acid] | 20 to 100
10 | O=C(O)c1ccc2nc(CC3CC=C(c4cccc5c4OC(c4ccc(Cl)cc4F)CO5)CO3)n(C[C@@H]3CCO3)c2c1 (mixture of isomers) [Compound 70, 2-((5-(3-(4-chloro-2-fluorophenyl)-2,3-dihydrobenzo[b][1,4]dioxin-5-yl)-3,6-dihydro-2H-pyran-2-yl)methyl)-1-(((S)-oxetan-2-yl)methyl)-1H-benzo[d]imidazole-6-carboxylic acid] | 20 to 100
11 | O=C(O)c1ccc2nc(CC3CC(c4cccc(OCc5ccc(Cl)cc5F)n4)CO3)n(C[C@@H]3CCO3)c2c1 (mixture of isomers) [Compound 71, 2-((4-(6-((4-chloro-2-fluorobenzyl)oxy)pyridin-2-yl)tetrahydrofuran-2-yl)methyl)-1-(((S)-oxetan-2-yl)methyl)-1H-benzo[d]imidazole-6-carboxylic acid] | > 100
12 | O=C(O)c1ccc2nc(CN3CC=C(c4cccc5c4OC(c4ccc(Cl)cc4F)C(=O)N5)CC3)n(C[C@@H]3CCO3)c2c1 (mixture of isomers) [Compound 81, 2-((4-(2-(4-chloro-2-fluorophenyl)-3-oxo-3,4-dihydro-2H-benzo[b][1,4]oxazin-8-yl)-3,6-dihydropyridin-1(2H)-yl)methyl)-1-(((S)-oxetan-2-yl)methyl)-1H-benzo[d]imidazole-6-carboxylic acid] | > 100
13 | CC1(c2ccc(Cl)cn2)COc2cccc(C3CCN(Cc4nc5ccc(C(=O)O)cc5n4C[C@@H]4CCO4)CC3)c2OC1 (mixture of isomers) [Compound 86, 2-((4-(3-(5-chloropyridin-2-yl)-3-methyl-3,4-dihydro-2H-benzo[b][1,4]dioxepin-6-yl)piperidin-l-yl)methyl)-1-(((S)-oxetan-2-yl)methyl)-1H-benzo[d]imidazole-6-carboxylic acid] | > 100
14 | O=C(O)c1ccc2nc(CN3CCC(c4cccc5c4OC(c4ccc(Cl)cc4F)C(=O)N5)CC3)n(C[C@@H]3CCO3)c2c1 (mixture of isomers) [Compound 104, 2-((4-(2-(4-chloro-2-fluorophenyl)-3-oxo-3,4-dihydro-2H-benzo[b][1,4]oxazin-8-yl)piperidin-1-yl)methyl)-1-(((S)-oxetan-2-yl)methyl)-1H-benzo[d]imidazole-6-carboxylic acid] | 20 to 100

Other lines, results leading:

Row | EC50 [nM] | SMILES
15 | > 100 | CCC1(c2ccc(Cl)cc2F)Oc2cccc(-c3ccc(Cc4nc5ccc(C(=O)O)cc5n4C[C@@H]4CCO4)cc3)c2O1 (mixture of isomers) [Compound 7, 2-(4-(2-(4-chloro-2-fluorophenyl)-2-ethylbenzo[d][1,3]dioxol-4-yl)benzyl)-1-(((S)-oxetan-2-yl)methyl)-1H-benzo[d]imidazole-6-carboxylic acid]
16 | < 20 | CC1(c2ccc(Cl)cc2F)Oc2cccc(-c3ccc(Cc4nc5ccc(C(=O)O)cc5n4C[C@@H]4CCO4)cc3)c2O1 (mixture of isomers) [Compound 15, 2-(4-(2-(4-chloro-2-fluorophenyl)-2-methylbenzo[d][1,3]dioxol-4-yl)benzyl)-1-(((S)-oxetan-2-yl)methyl)-1H-benzo[d]imidazole-6-carboxylic acid]
17 | < 20 | CC1(c2ccc(Cl)cc2F)Oc2cccc(-c3ccc(Cc4nc5ccc(C(=O)O)cc5n4C[C@@H]4CCO4)nc3)c2O1 (mixture of isomers) [Compound 16, 2-((5-(2-(4-chloro-2-fluorophenyl)-2-methylbenzo[d][1,3]dioxol-4-yl)pyridin-2-yl)methyl)-1-(((S)-oxetan-2-yl)methyl)-1H-benzo[d]imidazole-6-carboxylic acid]
18 | < 20 | CC1(c2ccc(Cl)cc2F)Oc2cccc(-c3cnc(Cc4nc5ccc(C(=O)O)cc5n4C[C@@H]4CCO4)nc3)c2O1 (mixture of isomers) [Compound 17, 2-((5-(2-(4-chloro-2-fluorophenyl)-2-methylbenzo[d][1,3]dioxol-4-yl)pyrimidin-2-yl)methyl)-1-(((S)-oxetan-2-yl)methyl)-1H-benzo[d]imidazole-6-carboxylic acid]
19 | 20 to 100 | CC1(c2ccc(Cl)cc2F)Oc2cccc(-c3ncc(Cc4nc5ccc(C(=O)O)cc5n4C[C@@H]4CCO4)cn3)c2O1 (mixture of isomers) [Compound 21, 2-((2-(2-(4-chloro-2-fluorophenyl)-2-methylbenzo[d][1,3]dioxol-4-yl)pyrimidin-5-yl)methyl)-1-(((S)-oxetan-2-yl)methyl)-1H-benzo[d]imidazole-6-carboxylic acid]
20 | 20 to 100 | CC1(c2ccc(Cl)cc2F)Oc2cccc(-c3ccn(Cc4nc5ccc(C(=O)O)cc5n4C[C@@H]4CCO4)c(=O)c3)c2O1 (mixture of isomers) [Compound 22, 2-((4-(2-(4-chloro-2-fluorophenyl)-2-methylbenzo[d][1,3]dioxol-4-yl)-2-oxopyridin-1(2H)-yl)methyl)-1-(((S)-oxetan-2-yl)methyl)-1H-benzo[d]imidazole-6-carboxylic acid]
21 | > 100 | CC1(c2ccc(Cl)cc2F)Oc2cccc(-c3nc(Cc4nc5ccc(C(=O)O)cc5n4C[C@@H]4CCO4)cs3)c2O1 (mixture of isomers) [Compound 25, 2-((2-(2-(4-chloro-2-fluorophenyl)-2-methylbenzo[d][1,3]dioxol-4-yl)thiazol-4-yl)methyl)-1-(((S)-oxetan-2-yl)methyl)-1H-benzo[d]imidazole-6-carboxylic acid]
22 | < 20 | Cc1cc(Cc2nc3ccc(C(=O)O)cc3n2C[C@@H]2CCO2)ccc1-c1cccc2c1OC(C)(c1ccc(Cl)cc1F)O2 (mixture of isomers) [Compound 43, 2-(4-(2-(4-chloro-2-fluorophenyl)-2-methylbenzo[d][1,3]dioxol-4-yl)-3-methylbenzyl)-1-(((S)-oxetan-2-yl)methyl)-1H-benzo[d]imidazole-6-carboxylic acid]
